Tested on: anesthetized rats
Experiment: Blood pressure and heart rate of anesthetized rats (Example 12)
Format: in vivo, wistar rats
Procedure: Forty male wistar rats with the body weight ranging from 220-240 g were used in the study. Pharmaceuticals: compound (2) and Sildenafil, which were ground and then suspended with 1% of sodium carboxymethyl cellulose. Apparatus: RM-6000 eight-graph system (NIHON KOHDEN, Japan). The doses for administration and the division of the groups: solvent control group (abbreviated as the control group), 20 mg/kg of compound (2), 40 mg/kg of compound (2), 80 mg/kg of compound (2), and 50 mg/kg of Sildenafil. The administration route is through dodecadactylon. Methods: the male wistar rats were taken out and anesthetized with 35 mg/kg of sodium pentobarbital by injecting into the abdominal cavity, on the basis of their body weight. The rats were fixed on the operation table and were performed with the dissection operation of right carotid artery. The catheter with an external diameter of 1 mm was inserted into the right carotid artery. The blood pressure was measured and the electrodes positioned on the skin of the four limbs were used to record the electrocardiogram limb lead II. The catheter with an external diameter of 2 mm was inserted into the dodecadactylon via incision of the epigastric region, for the administration of the pharmaceuticals. RM-6000 eight-graph system (NIHON KOHDEN, Japan) was employed to record. Observation time: the value before administration, the values at 15, 30, 60, 120 and 180 min after the administration.

[1] = 20 mg/kg through dodecadactylon, at 15 min after administration
[2] = 20 mg/kg through dodecadactylon, at 30 min after administration
[3] = 20 mg/kg through dodecadactylon, at 60 min after administration
[4] = 20 mg/kg through dodecadactylon, at 120 min after administration
[5] = 20 mg/kg through dodecadactylon, value before administration
[6] = 40 mg/kg through dodecadactylon, at 15 min after administration
[7] = 40 mg/kg through dodecadactylon, at 30 min after administration
[8] = 40 mg/kg through dodecadactylon, at 60 min after administration
[9] = 40 mg/kg through dodecadactylon, at 120 min after administration
[10] = 40 mg/kg through dodecadactylon, value before administration
[11] = 80 mg/kg through dodecadactylon, at 15 min after administration
[12] = 80 mg/kg through dodecadactylon, at 30 min after administration
[13] = 80 mg/kg through dodecadactylon, at 60 min after administration
[14] = 80 mg/kg through dodecadactylon, at 120 min after administration
[15] = 80 mg/kg through dodecadactylon, value before administration
[16] = 20, 40 and 80 mg/kg through dodecadactylon

`CCCc1nn(C)c2c(=S)[nH]c(-c3cc(S(=O)(=O)N4C[C@@H](C)N[C@@H](C)C4)ccc3OCC)nc12` [Compound (2), 5-[2-ethoxy-5-(cis-3,5-dimethylpiperazin-1-sulfonyl)phenyl]-1-methyl-3-n-propyl-1,6-dihydro-7H-pyrazolo[4,3-d]pyrimidin-7-thione] showed a Heart rate [1] of 440 ± 29.7 times/min, a Systolic pressure [1] of 132 ± 29.5 mmHg and a diastolic pressure [1] of 108 ± 29.7 mmHg. The Heart rate [2] was 440 ± 29.6 times/min, the Systolic pressure [2] was 134 ± 29.6 mmHg and the diastolic pressure [2] was 104 ± 29.6 mmHg. The Heart rate [3] was 436 ± 22.9 times/min, the Systolic pressure [3] was 128 ± 22.9 mmHg and the diastolic pressure [3] was 101 ± 22.9 mmHg. For the same compound, the Heart rate [4] was 428 ± 22.6 times/min, the Systolic pressure [4] was 127 ± 22.6 mmHg and the diastolic pressure [4] was 102 ± 22.6 mmHg. It also gave a Heart rate (20 mg/kg through dodecadactylon, before administration) of 445 ± 25.1 times/min, a Systolic pressure [5] of 134 ± 7.2 mmHg and a diastolic pressure [5] of 109 ± 14.1 mmHg. For the same compound, the Heart rate [6] was 422 ± 29.7 times/min, the Systolic pressure [6] was 130 ± 29.7 mmHg and the diastolic pressure [6] was 109 ± 29.7 mmHg. The Heart rate [7] was 427 ± 29.6 times/min, the Systolic pressure [7] was 134 ± 29.6 mmHg and the diastolic pressure [7] was 109 ± 29.6 mmHg. For the same compound, the Heart rate [8] was 425 ± 22.9 times/min, the Systolic pressure [8] was 122 ± 22.9 mmHg and the diastolic pressure [8] was 109 ± 22.9 mmHg. For the same compound, the Heart rate [9] was 424 ± 22.6 times/min, the Systolic pressure [9] was 133 ± 22.6 mmHg and the diastolic pressure [9] was 112 ± 22.6 mmHg. For the same compound, the Heart rate (40 mg/kg through dodecadactylon, before administration) was 429 ± 42.8 times/min, the Systolic pressure [10] was 129 ± 13.6 mmHg and the diastolic pressure [10] was 109 ± 14.4 mmHg. For the same compound, the Heart rate [11] was 439 ± 29.7 times/min, the Systolic pressure [11] was 121 ± 29.7 mmHg and the diastolic pressure [11] was 102 ± 29.7 mmHg. It also gave a Heart rate [12] of 442 ± 29.6 times/min, a Systolic pressure [12] of 123 ± 29.6 mmHg and a diastolic pressure [12] of 97 ± 29.6 mmHg. It also gave a Heart rate [13] of 436 ± 22.8 times/min, a Systolic pressure [13] of 121 ± 22.9 mmHg and a diastolic pressure [13] of 96 ± 22.9 mmHg. For the same compound, the Heart rate [14] was 438 ± 22.6 times/min, the Systolic pressure [14] was 119 ± 22.6 mmHg and the diastolic pressure [14] was 94 ± 22.6 mmHg. For the same compound, the Heart rate (80 mg/kg through dodecadactylon, before administration) was 439 ± 22.6 times/min, the Systolic pressure [15] was 126 ± 12.1 mmHg and the diastolic pressure [15] was 102 ± 12.0 mmHg. The “effect on the heart rate (in words)” value [16] was “did not exhibit an evident effect” and the “effect on the systolic pressure and diastolic pressure (in words)” value [16] was “did not exhibit an evident effect”.

— patent US20070219220A1, “Pyrazolopyrimidinethione Derivatives, Salts and Solvates Thereof, Preparation Methods and Use Thereof” (priority 2003, published 2007)
